Measurements: patent US20240390407A1, “PROMOTER FOR DIFFERENTIATION INTO CARTILAGE CELL, CARTILAGE CELL PROPAGATION PROMOTER, AND CARTILAGE MATRIX PRODUCTION PROMOTER” (HOKURIKU UNIVERSITY, priority 2021, published 2024)

Assays:
Format in all cases: cell-based
[1] = tested on: chondrogenic progenitor ATDC5 cells; experiment: Content of DNA in cell digestive fluid as index of cell number; conditions: day 24 of culture; at 10 μM and 20 μM significant at P<0.01 vs control (FIG. 3)
Experimental: (§1) Using chondrogenic progenitor ATDC5 cells, the effects of liquiritin on the differentiation of chondrogenic progenitor cells into chondrocytes, proliferation of chondrocytes, and production of cartilaginous matrix were investigated as follows.
(§2) ATDC5 cells (obtained from RIKEN BioResource Research Center) were seeded at 1×10^4 cells/well in a microplate containing 0.5 mL of Dulbecco's modified Eagle medium (DMEM)/Ham's F-12 medium (manufactured by FUJIFILM Wako Pure Chemical Corporation), and cultured at 37° C. in the presence of 5% by volume carbon dioxide.
On days 3, 6, 9, 12, 15, 18 and 21 of culture, transferrin and sodium selenite, which are differentiation-inducing reagents, were each added to the aforementioned medium at final concentrations of 10 μg/mL and 30 nM, respectively, and further, the medium was replaced with a medium to which liquiritin was added at each final concentration of 5 μM, 10 μM, or 20 μM, and the culture was continued.
The case of same treatment without adding liquiritin (liquiritin concentration=0 μM) was used as a control. […]
The content of DNA in the above-mentioned sample was measured using a DNA quantification kit (“DNA Assay Kit”, manufactured by Cosmo Bio Company, Limited) (n=4 for each) and used as an index of cell number. […]

[2] = tested on: chondrogenic progenitor ATDC5 cells; experiment: Quantification of intracellular sulfated glycosaminoglycan (dimethylmethylene blue, absorbance at 525 nm)
Experimental: as §1
as §2, with “dioxide. […]” for “dioxide.”
Each sample (20 μL) was blended with 200 μL of a 16 mg/L dimethylmethylene blue solution (prepared with an aqueous solution (pH=3.0) containing 40 mM glycine, 27 mM sodium chloride, and 10 mM acetic acid), and the absorbance at 525 nm was measured and sulfated glycosaminoglycan in the sample was quantified (n=4 for each). The quantification results are shown in FIG. 2 as meantstandard deviation. As regards the quantification results, an unpaired t-test was performed between each group added with liquiritin at the above-mentioned concentration and the control.

[3] = tested on: chondrogenic progenitor ATDC5 cells; experiment: Detection of glycosaminoglycan by Alcian blue staining (absorbance at 620 nm); conditions: day 24 of culture
Experimental: as §1
as §2, with “dioxide. […]” for “dioxide.”
On day 24 of culture, the cells were fixed with 95% by volume ethanol, and then stained with Alcian blue staining solution (prepared with 1% Alcian blue and 3% acetic acid aqueous solution, pH=2.5), and glycosaminoglycan was detected.
Then, the Alcian blue dye of the stained cultured cells was solubilized with 6M guanidine hydrochloride, and the absorbance at 620 nm was measured using a plate reader (Infinite 200 PRO, manufactured by Tecan Japan Co., Ltd., for each liquiritin concentration and control, n=4). The measurement results are shown in FIG. 1 as meantstandard deviation based on relative values when the absorbance in the control is 100. […]

[4] = tested on: chondrogenic progenitor ATDC5 cells; experiment: Measurement of number of cells under microscope
Experimental: Using chondrogenic progenitor ATDC5 cells, the effects of liquiritin on the differentiation of chondrogenic progenitor cells into chondrocytes, proliferation of chondrocytes, and production of cartilaginous matrix were investigated as follows. ATDC5 cells (obtained from RIKEN BioResource Research Center) were seeded at 1×10^4 cells/well in a microplate containing 0.5 mL of Dulbecco's modified Eagle medium (DMEM)/Ham's F-12 medium (manufactured by FUJIFILM Wako Pure Chemical Corporation), and cultured at 37° C. in the presence of 5% by volume carbon dioxide. […] In addition, on day 24 of culture, the cells were washed with 10 mM phosphate buffered saline (pH=7.4), the cells were detached using 0.25 (w/v) % trypsin-1 mM tetrasodium ethylenediaminetetraacetate solution (manufactured by FUJIFILM Wako Pure Chemical Corporation), the number of cells in the cell suspension was observed under an inverted culture microscope (CK40, manufactured by Olympus Corporation) (magnification=10x), and the number of cells was measured (n=4 for each). […]

Structure (SMILES): O=C1C[C@@H](c2ccc(O[C@@H]3O[C@H](CO)[C@@H](O)[C@H](O)[C@H]3O)cc2)Oc2cc(O)ccc21 [liquiritin, (2S)-2,3-dihydro-7-hydroxy-2-[4-(β-D-glucopyranosyloxy)phenyl]-4H-1-benzopyran-4-one]
- content of DNA in the cell digestive fluid (index of cell number) [1]: increased with the addition concentration
- amount of sulfated glycosaminoglycan contained in cell digestive fluid ([2]; 5 μM to 20 μM liquiritin, day 24 of culture, P<0.01 vs control (FIG. 2)): significant increase
- concentration promoting production of glycosaminoglycan by chondrocytes (as low as) ([2]; ATDC5 cells, conclusion from results): 5 µM
- absorbance at 620 nm of solubilized Alcian blue dye compared to the control ([3]; 20 μM liquiritin, P<0.05 (FIG. 1)): significant increase
- glycosaminoglycan stained with Alcian blue in cultured cells ([3]; not less than 10 μM liquiritin, vs control (FIG. 1)): increased
- cell number on day 24 of culture ([4]; at 10 μM and 20 μM significant at P<0.05 vs control (FIG. 4)): increased with the addition concentration
- cytotoxicity ([4]; concentration range 10 μM to 20 μM, ATDC5 cells): does not exhibit cytotoxicity
